Calls of active or inactive are those of the source. The calls are words filed in the database; no cut-off is given here.
Key:
D(2) dopamine receptor [1] = biological target: T1, D(2) dopamine receptor (Homo sapiens, UniProt P14416); assay: Agonist activity at human D2L receptor expressed in HEK293 cells assessed as stimulation of cAMP levels at 1 uM relative to dopamine; assay type: functional, cell-based
D(2) dopamine receptor [2] = biological target: T1, D(2) dopamine receptor; assay: Displacement of [3H]N-methylspiperone from human recombinant dopamine D2 receptor expressed in CHOK1 cells incubated for 60 mins by microbeta plate reader based method; assay type: cell-based, CHO-K1
[3] = biological target: T2, 5-hydroxytryptamine receptor 1A (Homo sapiens) (UniProt P08908); assay: Antagonist activity against human 5-HT1A receptor expressed in HEK293 cells assessed as inhibition of […]-induced cAMP levels at 0.1 uM; assay type: functional, cell-based
T2 sequence (whole entry): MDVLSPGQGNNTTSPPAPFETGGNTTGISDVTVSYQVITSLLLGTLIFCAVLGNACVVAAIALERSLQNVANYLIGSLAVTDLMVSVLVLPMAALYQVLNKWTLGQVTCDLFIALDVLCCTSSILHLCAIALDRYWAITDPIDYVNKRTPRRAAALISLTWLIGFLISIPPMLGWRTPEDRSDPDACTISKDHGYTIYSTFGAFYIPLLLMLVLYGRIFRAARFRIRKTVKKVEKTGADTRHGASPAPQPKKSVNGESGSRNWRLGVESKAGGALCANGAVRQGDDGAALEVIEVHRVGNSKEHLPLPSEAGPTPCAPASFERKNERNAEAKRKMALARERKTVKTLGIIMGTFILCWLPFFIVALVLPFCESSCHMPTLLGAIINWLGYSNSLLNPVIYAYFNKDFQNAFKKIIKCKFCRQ

Mus musculus [4] = assay: Antidepressant-like activity in Swiss mouse assessed as reduction in immobility time at 5 mg/kg, ip administered 60 mins before test; assay type: functional; design: scale not given: the % may be the effect or the level left; settings: route intraperitoneal
Mus musculus [5] = assay: Toxicity in Swiss mouse assessed as spontaneous locomotor activity at 2.5 to 10 mg/kg, ip measured during 2 to 6 mins; assay type: organism-based; design: route intraperitoneal; settings: in vivo
[6] = biological target: T3, 5-hydroxytryptamine receptor 7 (Homo sapiens, UniProt P34969); assay: Displacement of [3H]LSD from human recombinant 5-HT7 receptor expressed in CHOK1 cells incubated for 60 mins by microbeta plate reader based method; assay type: cell-based, CHO-K1
D(2) dopamine receptor [7] = biological target: T1, D(2) dopamine receptor; assay: Agonist activity at human D2L receptor expressed in HEK293 cells assessed as stimulation of cAMP levels at 0.1 uM relative to dopamine; assay type: functional, cell-based
[8] = biological target: T2, 5-hydroxytryptamine receptor 1A (Homo sapiens); assay: Antagonist activity against human 5-HT1A receptor expressed in HEK293 cells assessed as inhibition of […]-induced cAMP levels at 1 uM; assay type: functional, cell-based
[9] = biological target: T2, 5-hydroxytryptamine receptor 1A (Homo sapiens); assay: Agonist activity at human 5-HT1A receptor expressed in HEK293 cells assessed as stimulation of cAMP levels at 1 uM relative to 8-OH-DPAT; assay type: functional, cell-based
[10] = biological target: T2, 5-hydroxytryptamine receptor 1A (Homo sapiens); assay: Agonist activity at human 5-HT1A receptor expressed in HEK293 cells assessed as stimulation of cAMP levels at 0.1 uM relative to 8-OH-DPAT; assay type: functional, cell-based
D(2) dopamine receptor [11] = biological target: T1, D(2) dopamine receptor; assay: Antagonist activity against human dopamine D2L receptor expressed in HEK293 cells assessed as inhibition of […]-induced cAMP levels at 1 uM; assay type: functional, cell-based
Mus musculus [12] = assay: Antidepressant-like activity in Swiss mouse assessed as reduction in immobility time at 2.5 to 10 mg/kg, ip administered 60 mins before test; assay type: functional, organism-based
[13] = biological target: T4, 5-hydroxytryptamine receptor 6 (Homo sapiens, UniProt P50406); assay: Displacement of [3H]LSD from human recombinant 5-HT6 receptor expressed in HEK293 cells incubated for 60 mins by microbeta plate reader based method; assay type: cell-based
D(2) dopamine receptor [14] = biological target: T1, D(2) dopamine receptor; assay: Antagonist activity against human dopamine D2L receptor expressed in HEK293 cells assessed as inhibition of […]-induced cAMP levels at 0.1 uM; assay type: functional, cell-based
[15] = biological target: T5, 5-hydroxytryptamine receptor 1A (Rattus norvegicus, UniProt P19327); assay: Displacement of [3H]8-OH-DPAT from rat hippocampus 5-HT1A receptor incubated for 20 mins by microbeta plate reader based method
T5 sequence (P19327 whole entry): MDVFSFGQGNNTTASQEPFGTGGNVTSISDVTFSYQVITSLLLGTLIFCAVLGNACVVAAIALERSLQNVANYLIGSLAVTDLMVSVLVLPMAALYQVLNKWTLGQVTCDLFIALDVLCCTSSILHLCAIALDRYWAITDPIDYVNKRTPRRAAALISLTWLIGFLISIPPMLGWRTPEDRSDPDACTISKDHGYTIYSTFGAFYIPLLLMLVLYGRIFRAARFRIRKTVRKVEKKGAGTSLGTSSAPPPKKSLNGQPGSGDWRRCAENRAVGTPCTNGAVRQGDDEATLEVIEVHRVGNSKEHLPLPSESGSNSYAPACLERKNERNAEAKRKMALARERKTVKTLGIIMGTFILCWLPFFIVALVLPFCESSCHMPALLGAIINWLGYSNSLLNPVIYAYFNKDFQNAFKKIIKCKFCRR

Mus musculus [16] = assay: Toxicity in Swiss mouse assessed as spontaneous locomotor activity at 2.5 to 10 mg/kg, ip; assay type: organism-based; design: dose 2.5-10 mg/kg, route intraperitoneal; settings: in vivo
[17] = Selectivity index, ratio of Ki for rat hippocampus 5-HT1A receptor to Ki for human recombinant 5-HT7 receptor
Mus musculus [18] = assay: Anxiolytic-like activity in Swiss mouse assessed as increase in number of punished crossings measured during 60 seconds period at 25 mg/kg, ip by four-plate test; assay type: functional; settings: route intraperitoneal
Mus musculus [19] = assay: Anxiolytic-like activity in Swiss mouse assessed as increase in number of punished crossings measured during 60 seconds period at 2.5 to 10 mg/kg, ip by four-plate test; assay type: functional, organism-based
Mus musculus [20] = assay: Anxiolytic-like activity in Swiss mouse assessed as increase in number of punished crossings measured during 60 seconds period at 5 mg/kg, ip by four-plate test; assay type: functional; settings: route intraperitoneal
[21] = biological target: T4, 5-hydroxytryptamine receptor 6; assay: Displacement of [3H]LSD from human recombinant 5-HT6 receptor expressed in HEK293 cells assessed as total radioligand binding at 1 uM incubated for 60 mins by microbeta plate reader based method; assay type: cell-based
[22] = biological target: T6, 5-hydroxytryptamine receptor 1A (Rattus norvegicus) (UniProt P19327); assay: Displacement of [3H]8-OH-DPAT from rat hippocampus 5-HT1A receptor assessed as total radioligand binding at 1.66 x 10^-7 M incubated for 20 mins by microbeta plate reader based method
T6 sequence (whole entry): T5 sequence (P19327 whole entry)

Mus musculus [23] = assay: Antidepressant-like activity in Swiss mouse assessed as reduction in immobility time at 1.25 to 5 mg/kg, ip administered 60 mins before test; assay type: functional, organism-based
[24] = biological target: T4, 5-hydroxytryptamine receptor 6; assay: Displacement of [3H]LSD from human recombinant 5-HT6 receptor expressed in HEK293 cells assessed as total radioligand binding at 1.66 x 10^-7 M incubated for 60 mins by microbeta plate reader based method; assay type: cell-based
[25] = biological target: T3, 5-hydroxytryptamine receptor 7; assay: Antagonist activity against human 5-HT7 receptor expressed in HEK293 cells assessed as inhibition of 5-HT-induced cAMP levels at 0.1 uM; assay type: functional, cell-based
[26] = biological target: D(3) dopamine receptor (Homo sapiens) (UniProt P35462); assay: Displacement of [3H]N-methylspiperone from dopamine D3 receptor (unknown origin) assessed as total radioligand binding at 1 uM incubated for 60 mins by microbeta plate reader based method
[27] = biological target: T3, 5-hydroxytryptamine receptor 7; assay: Agonist activity at human 5-HT7 receptor expressed in HEK293 cells assessed as stimulation of cAMP levels at 1 uM relative to 5HT; assay type: functional, cell-based
[28] = biological target: D(3) dopamine receptor (Homo sapiens) (UniProt P35462); assay: Displacement of [3H]N-methylspiperone from dopamine D3 receptor (unknown origin) assessed as total radioligand binding at 1.66 x 10^-7 M incubated for 60 mins by microbeta plate reader based method
[29] = biological target: T6, 5-hydroxytryptamine receptor 1A (Rattus norvegicus); assay: Displacement of [3H]8-OH-DPAT from rat hippocampus 5-HT1A receptor assessed as total radioligand binding at 1 uM incubated for 20 mins by microbeta plate reader based method
[30] = biological target: T3, 5-hydroxytryptamine receptor 7; assay: Antagonist activity against human 5-HT7 receptor expressed in HEK293 cells assessed as inhibition of 5-HT-induced cAMP levels at 1 uM; assay type: functional, cell-based
[31] = biological target: T3, 5-hydroxytryptamine receptor 7; assay: Agonist activity at human 5-HT7 receptor expressed in HEK293 cells assessed as stimulation of cAMP levels at 0.1 uM relative to 5HT; assay type: functional, cell-based
Mus musculus [32] = assay: Toxicity in Swiss mouse assessed as spontaneous locomotor activity at 5 to 20 mg/kg, ip measured during 2 to 6 mins; assay type: organism-based; design: route intraperitoneal; settings: in vivo

T3 sequence (P34969 whole entry): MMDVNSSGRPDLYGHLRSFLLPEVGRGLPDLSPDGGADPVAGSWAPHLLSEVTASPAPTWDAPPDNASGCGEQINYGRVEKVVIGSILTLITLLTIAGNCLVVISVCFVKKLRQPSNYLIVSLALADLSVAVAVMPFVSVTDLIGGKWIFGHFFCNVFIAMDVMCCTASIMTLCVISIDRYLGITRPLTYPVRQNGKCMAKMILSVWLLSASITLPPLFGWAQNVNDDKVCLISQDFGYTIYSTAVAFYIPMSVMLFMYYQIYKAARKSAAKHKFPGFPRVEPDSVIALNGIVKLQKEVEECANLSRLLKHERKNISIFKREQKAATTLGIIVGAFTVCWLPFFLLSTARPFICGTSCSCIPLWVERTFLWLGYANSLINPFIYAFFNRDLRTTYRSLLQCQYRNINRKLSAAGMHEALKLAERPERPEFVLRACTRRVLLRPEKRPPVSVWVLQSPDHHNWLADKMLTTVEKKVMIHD
T1 sequence (P14416 whole entry): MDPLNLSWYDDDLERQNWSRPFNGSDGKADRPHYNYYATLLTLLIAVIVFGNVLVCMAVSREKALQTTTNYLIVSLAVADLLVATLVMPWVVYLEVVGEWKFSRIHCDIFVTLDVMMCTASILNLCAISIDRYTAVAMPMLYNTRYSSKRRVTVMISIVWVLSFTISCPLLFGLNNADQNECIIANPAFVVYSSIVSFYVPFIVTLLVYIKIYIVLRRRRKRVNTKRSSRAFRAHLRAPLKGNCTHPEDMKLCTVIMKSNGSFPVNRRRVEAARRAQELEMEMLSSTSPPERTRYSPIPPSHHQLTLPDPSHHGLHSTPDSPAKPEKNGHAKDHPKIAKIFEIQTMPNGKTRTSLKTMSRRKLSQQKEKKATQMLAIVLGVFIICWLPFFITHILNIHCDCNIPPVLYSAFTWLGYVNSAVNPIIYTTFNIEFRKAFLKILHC
T4 sequence (P50406 whole entry): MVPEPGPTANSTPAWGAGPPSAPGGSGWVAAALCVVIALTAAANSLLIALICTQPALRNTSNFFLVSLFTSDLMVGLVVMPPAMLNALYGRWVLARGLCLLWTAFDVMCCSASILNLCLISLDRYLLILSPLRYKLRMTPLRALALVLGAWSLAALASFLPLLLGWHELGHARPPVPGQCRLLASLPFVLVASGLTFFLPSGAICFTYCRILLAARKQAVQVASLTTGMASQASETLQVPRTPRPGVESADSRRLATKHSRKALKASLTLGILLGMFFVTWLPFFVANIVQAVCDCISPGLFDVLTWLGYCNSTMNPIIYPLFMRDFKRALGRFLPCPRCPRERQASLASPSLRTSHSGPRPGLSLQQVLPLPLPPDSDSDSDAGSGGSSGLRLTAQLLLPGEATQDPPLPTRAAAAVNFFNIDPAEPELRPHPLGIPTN
Sequence of D(3) dopamine receptor (Homo sapiens) (P35462 whole entry): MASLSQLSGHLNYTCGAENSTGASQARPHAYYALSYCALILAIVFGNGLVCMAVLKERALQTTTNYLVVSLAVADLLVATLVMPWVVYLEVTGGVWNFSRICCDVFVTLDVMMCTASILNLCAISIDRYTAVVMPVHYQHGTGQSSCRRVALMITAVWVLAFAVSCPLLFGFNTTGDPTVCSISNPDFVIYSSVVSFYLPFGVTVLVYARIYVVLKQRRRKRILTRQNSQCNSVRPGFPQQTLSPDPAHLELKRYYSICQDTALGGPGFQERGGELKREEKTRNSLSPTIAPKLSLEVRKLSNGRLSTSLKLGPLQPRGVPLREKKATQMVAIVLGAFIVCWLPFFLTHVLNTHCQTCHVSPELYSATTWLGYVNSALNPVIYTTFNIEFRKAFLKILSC

Activity (D(2) dopamine receptor [1]) [%]	Ki (D(2) dopamine receptor [2]) [nM]	inhibition [3] [%]	Ki [6] [nM]	Activity (D(2) dopamine receptor [7]) [%]	inhibition [8] [%]	Activity [9] [%]	Activity [10] [%]	inhibition (D(2) dopamine receptor [11]) [%]	inhibition (D(2) dopamine receptor [14]) [%]	Ki [15] [nM]	Ratio Ki [17]	SMILES	Activity (Mus musculus [16])	Activity (Mus musculus [19])	also measured
10	59	92.9	111	0.8	87.6	18.7	2.3	55.9	20.9	22	0.19	Cc1cn2c3c(=O)n(C)c(=O)n(C)c3nc2n1CCCCCN1CCN(c2ccc(Cl)c(Cl)c2)CC1	Non-toxic	Active	Activity (Mus musculus [4]): 25%; Activity (Mus musculus [5]): Non-toxic; Activity (Mus musculus [12]): Active; Ki [13]: 405 nM; Activity (Mus musculus [18]): 124%
7.7	24	68.3	43	12.3	91.8	32.5	22.9	71.2	12.2	9	0.2	Cn1c(=O)c2c(nc3n(CCCCCN4CCN(c5ccccc5O)CC4)c(-c4ccccc4)cn23)n(C)c1=O	Non-toxic	Active	Activity (Mus musculus [20]): 90%; Activity [21]: 60%; Activity [22]: 47%; Activity (Mus musculus [23]): inactive; Activity [24]: 87%; inhibition [25]: 11%; Activity [26]: 39%; Activity [27]: 5.3%; Activity [28]: 81%; Activity [29]: 9%; inhibition [30]: 58.9%; Activity [31]: 5.1%
–	–	–	–	–	–	–	–	–	–	–	–	CN(C)CCCN1c2ccccc2CCc2ccccc21.Cl [IMIPRAMINE HYDROCHLORIDE]	–	–	Activity (Mus musculus [32]): Non-toxic
